# Tested on: Botrytis cinerea
# Experiment: Preventive test against Cucumber Gray Mold disease
# Format: in vivo
# Conditions: 96 h, 62.5 ppm, 4 days after inoculation, 23° C.
# Protocol: Cucumber plants (cultivar: Satsukimidori), were each grown in a 15 cm.phi. plastic pot to the first leaf stage. The plants were sprayed with 10 ml/l pot of aqueous diluted suspensions of various types of wettable powders (including the wettable powder containing, as its active ingredient, compound No. 1 obtained in the Preparation Example 1, wettable powders, containing as active ingredients compounds Nos. 2-10 obtained in a manner similar to Preparation Example 1, and a wettable powder for a comparison chemical containing, as its active ingredient, tetrachloroisophthalonitrile obtained in manner similar to Preparation Example 1). After air-drying for 5 hours, the plants were inoculated with the mecelia of Botrytis cinerea inoculated with shaking in Yeast-Glucose liquid medium.
# The cucumbers were kept in the humidic chamber at 23° C. for 4 days after inoculation and then checked with respect to their disease index. The checking was conducted as follows: The leaves were checked to determine the extent of lesion area and classified into six groups as indicated by indices 0, 1, 2, 3, 4, 5 based on the extent of the lesions and on the numbers of leaves n0, n1, n2, n3, n4, and n5 which corresponded to the indices, respectively, were also determined to calculate the disease index from the following equation.
# 1 lesion area of 1/5 times the total leaf area
# 2 lesion area of 2/5 times the total leaf area
# 3 lesion area of 3/5 times the total leaf area
# 4 lesion area of 4/5 times the total leaf area
# 5 lesion area above 4/5 times the total leaf area
# (where n is the total number of checked leaves)
# The preventive value was calculated from the following equation. [formula]
row,Compound,pest or weed control at 62.5 ppm
1,"O=C1C2SCCN2C(=O)N1c1cc(Cl)cc(Cl)c1 (centres unmarked) [Compound No. 1, 6-(3,5-dichlorophenyl)perhydroimidazo[5,1-b]thiazole-5,7-dion]",100%
2,"CC12SCCN1C(=O)N(c1cc(Cl)cc(Cl)c1)C2=O (centres unmarked) [Compound No. 3, 7a-methyl-6-(3,5-dichlorophenyl)perhydroimidazo[5,1-b]thiazole-5,7-dion]",100%

# Same assay, conditions: 96 h, 125 ppm, 4 days after inoculation, 23° C.
row,Compound,pest or weed control at 125 ppm
1,"O=C1C2SCCN2C(=O)N1c1cc(Cl)cc(Cl)c1 (centres unmarked) [Compound No. 1, 6-(3,5-dichlorophenyl)perhydroimidazo[5,1-b]thiazole-5,7-dion]",100%
2,"CC12SCCN1C(=O)N(c1cc(Cl)cc(Cl)c1)C2=O (centres unmarked) [Compound No. 3, 7a-methyl-6-(3,5-dichlorophenyl)perhydroimidazo[5,1-b]thiazole-5,7-dion]",100%

# Same assay, conditions: 96 h, 250 ppm, 4 days after inoculation, 23° C.
row,Compound,pest or weed control at 250 ppm
1,"O=C1C2SCCN2C(=O)N1c1cc(Cl)cc(Cl)c1 (centres unmarked) [Compound No. 1, 6-(3,5-dichlorophenyl)perhydroimidazo[5,1-b]thiazole-5,7-dion]",100%
2,"CC12SCCN1C(=O)N(c1cc(Cl)cc(Cl)c1)C2=O (centres unmarked) [Compound No. 3, 7a-methyl-6-(3,5-dichlorophenyl)perhydroimidazo[5,1-b]thiazole-5,7-dion]",100%

# Same assay, conditions: 96 h, 500 ppm, 4 days after inoculation, 23° C.
row,Compound,pest or weed control at 500 ppm
1,"O=C1C2SCCN2C(=O)N1c1cc(Cl)cc(Cl)c1 (centres unmarked) [Compound No. 1, 6-(3,5-dichlorophenyl)perhydroimidazo[5,1-b]thiazole-5,7-dion]",100%
2,"O=C1C2SCCN2C(=S)N1c1cc(Cl)cc(Cl)c1 (centres unmarked) [Compound No. 2, 6-(3,5-dichlorophenyl)perhydroimidazo[5,1-b]thiazole-5-thion-7-on]",92%
3,"CC12SCCN1C(=O)N(c1cc(Cl)cc(Cl)c1)C2=O (centres unmarked) [Compound No. 3, 7a-methyl-6-(3,5-dichlorophenyl)perhydroimidazo[5,1-b]thiazole-5,7-dion]",100%
4,"CC12SCCN1C(=S)N(c1cc(Cl)cc(Cl)c1)C2=O (centres unmarked) [Compound No. 4, 7a-methyl-6-(3,5-dichlorophenyl)perhydroimidazo[5,1-b]thiazole-5-thion-7-on]",93%
5,"O=C1C2N(CCS2(=O)=O)C(=O)N1c1cc(Cl)cc(Cl)c1 (centres unmarked) [Compound No. 5, 6-(3,5-dichlorophenyl)perhydroimidazo[5,1-b]thiazole-5,7-dion-1,1-dioxide]",91%
6,"CC12C(=O)N(c3cc(Cl)cc(Cl)c3)C(=O)N1CCS2(=O)=O (centres unmarked) [Compound No. 6, 7a-methyl-6-(3,5-dichlorophenyl)perhydroimidazo[5,1-b]thiazole-5,7-dion-1,1-dioxide]",90%
7,"CCCC12SCCN1C(=O)N(c1cc(Cl)cc(Cl)c1)C2=O (centres unmarked) [Compound No. 8, 7a-n-propyl-6-(3,5-dichlorophenyl)perhydroimidazo[5,1-b]thiazole-5,7-dion]",97%

# Tested on: Cochliobolus miyabeans
# Experiment: Preventive test against Rice brown spot disease
# Format: in vivo, Cochliobolus miyabeans on rice plants (cultivar: Kinmaze)
# Conditions: Oryza sativa, 48 h, read-out: Preventive Value
# Protocol: Rice plants (cultivar: Kinmaze) were each grown in a 10 cm.phi. porcelain pot to the 3-4 leaves stage. The plants were sprayed with 10 ml/l pot of aqueous diluted suspensions of various types of wettable powders of the chemicals of the invention and comparison chemical [bis(dimethyl thiocarbamoyl)disulfide). The wettable powders were prepared in a manner similar to test example 1.
# After air drying for 5 hours, the plants were inoculated with a spore suspension of Cochliobolus miyabeans incubated with a chaffy medium at 25° C. for 5 days.
# These plants were kept in the humidic chamber at 27° C. for 48 hours after inoculation and the number of lesions were counted and preventive value was calculated according to the following equation. [formula]
row,Compound,pest or weed control at 500 ppm
1,"O=C1C2SCCN2C(=O)N1c1cc(Cl)cc(Cl)c1 (centres unmarked) [Compound No. 1, 6-(3,5-dichlorophenyl)perhydroimidazo[5,1-b]thiazole-5,7-dion]",95.1%
2,"O=C1C2SCCN2C(=S)N1c1cc(Cl)cc(Cl)c1 (centres unmarked) [Compound No. 2, 6-(3,5-dichlorophenyl)perhydroimidazo[5,1-b]thiazole-5-thion-7-on]",88.4%
3,"CC12SCCN1C(=O)N(c1cc(Cl)cc(Cl)c1)C2=O (centres unmarked) [Compound No. 3, 7a-methyl-6-(3,5-dichlorophenyl)perhydroimidazo[5,1-b]thiazole-5,7-dion]",96.2%
4,"CC12SCCN1C(=S)N(c1cc(Cl)cc(Cl)c1)C2=O (centres unmarked) [Compound No. 4, 7a-methyl-6-(3,5-dichlorophenyl)perhydroimidazo[5,1-b]thiazole-5-thion-7-on]",85.7%
5,"O=C1C2N(CCS2(=O)=O)C(=O)N1c1cc(Cl)cc(Cl)c1 (centres unmarked) [Compound No. 5, 6-(3,5-dichlorophenyl)perhydroimidazo[5,1-b]thiazole-5,7-dion-1,1-dioxide]",89.6%
6,"CC12C(=O)N(c3cc(Cl)cc(Cl)c3)C(=O)N1CCS2(=O)=O (centres unmarked) [Compound No. 6, 7a-methyl-6-(3,5-dichlorophenyl)perhydroimidazo[5,1-b]thiazole-5,7-dion-1,1-dioxide]",90.6%
7,"CCCC12SCCN1C(=O)N(c1cc(Cl)cc(Cl)c1)C2=O (centres unmarked) [Compound No. 8, 7a-n-propyl-6-(3,5-dichlorophenyl)perhydroimidazo[5,1-b]thiazole-5,7-dion]",85.4%

# Tested on: Sclerotinia sclerotiorum
# Experiment: Preventive test against kidney bean stem rot
# Format: in vivo
# Conditions: 50 ppm, 4 days, 25° C.
# Protocol: Kidney bean plants (cultivar: Kintoki) were each grown in a 15 cm.phi. plastic pot to the trifoliate stage. The plants were sprayed with 10 ml/l pot of an aqueous diluted suspension of wettable powders of the chemicals of the invention and comparison chemical.
# The wettable powders were prepared in a manner similar to example 1. After air drying for 5 hours, the plants were inoculated with mecelia of Sclerotinia sclerotiorum incubated with shaking in a Yeast-Glucose liquid medium, and kept in a humidic chamber at 25° C. for 4 days. Then the preventive value was calculated according to the equation given in test example 1.
row,Compound,Preventive Value
1,"O=C1C2SCCN2C(=O)N1c1cc(Cl)cc(Cl)c1 (centres unmarked) [Compound No. 1, 6-(3,5-dichlorophenyl)perhydroimidazo[5,1-b]thiazole-5,7-dion]",95.3%
2,"O=C1C2SCCN2C(=S)N1c1cc(Cl)cc(Cl)c1 (centres unmarked) [Compound No. 2, 6-(3,5-dichlorophenyl)perhydroimidazo[5,1-b]thiazole-5-thion-7-on]",93.8%

# Same assay, conditions: 100 ppm, 4 days, 25° C.
row,Compound,Preventive Value
1,"O=C1C2SCCN2C(=O)N1c1cc(Cl)cc(Cl)c1 (centres unmarked) [Compound No. 1, 6-(3,5-dichlorophenyl)perhydroimidazo[5,1-b]thiazole-5,7-dion]",98.2%
2,"O=C1C2SCCN2C(=S)N1c1cc(Cl)cc(Cl)c1 (centres unmarked) [Compound No. 2, 6-(3,5-dichlorophenyl)perhydroimidazo[5,1-b]thiazole-5-thion-7-on]",96.5%

# Same assay, conditions: 200 ppm, 4 days, 25° C.
row,Compound,Preventive Value
1,"O=C1C2SCCN2C(=O)N1c1cc(Cl)cc(Cl)c1 (centres unmarked) [Compound No. 1, 6-(3,5-dichlorophenyl)perhydroimidazo[5,1-b]thiazole-5,7-dion]",100%
2,"O=C1C2SCCN2C(=S)N1c1cc(Cl)cc(Cl)c1 (centres unmarked) [Compound No. 2, 6-(3,5-dichlorophenyl)perhydroimidazo[5,1-b]thiazole-5-thion-7-on]",100%

# Tested on: Botrytis cinerea (strain I)
# Experiment: Antifungal Test (PDA medium), Botrytis cinerea (strain I)
# Format: cell-based
# Conditions: 96 h, 25° C., 4 days, read-out: MIC Concentration
# Protocol: (§1) Each chemical was mixed with PDA medium in an amount enough to obtain the pre-determined concentration level and solidified in 9 cm.phi. Petri dish. Then, various plant disease fungi were inoculated on the middle of the mixed agar plate and cultured at 25° C. for 4 days.
# (§2) The minimum inhibition concentration (MIC) means that at which the development of the inoculated fungus was not recognized with the naked eye.
row,Compound,MIC
1,"O=C1C2SCCN2C(=O)N1c1cc(Cl)cc(Cl)c1 (centres unmarked) [Compound No. 1, 6-(3,5-dichlorophenyl)perhydroimidazo[5,1-b]thiazole-5,7-dion]",3.1 µg/mL
2,"CC12SCCN1C(=O)N(c1cc(Cl)cc(Cl)c1)C2=O (centres unmarked) [Compound No. 3, 7a-methyl-6-(3,5-dichlorophenyl)perhydroimidazo[5,1-b]thiazole-5,7-dion]",1.6 µg/mL

# Tested on: Botrytis cinerea (strain II)
# Experiment: Antifungal Test (PDA medium), Botrytis cinerea (strain II)
# Format: cell-based
# Conditions: 96 h, resistant to benzoimidazole type fungicide, 25° C., 4 days, read-out: MIC Concentration
# Protocol: as §1, §2
# *Botrytis cinerea (strain II) is the strain resistant to
# benzoimidazoletype fungicide e.g. Benlate, TopsinM.
row,Compound,MIC
1,"O=C1C2SCCN2C(=O)N1c1cc(Cl)cc(Cl)c1 (centres unmarked) [Compound No. 1, 6-(3,5-dichlorophenyl)perhydroimidazo[5,1-b]thiazole-5,7-dion]",3.1 µg/mL
2,"CC12SCCN1C(=O)N(c1cc(Cl)cc(Cl)c1)C2=O (centres unmarked) [Compound No. 3, 7a-methyl-6-(3,5-dichlorophenyl)perhydroimidazo[5,1-b]thiazole-5,7-dion]",0.8 µg/mL

# Tested on: Sclerotinia sclerotiorum
# Experiment: Antifungal Test (PDA medium), Sclerotinia sclerotiorum
# Format: cell-based
# Conditions: 96 h, 25° C., 4 days, read-out: MIC Concentration
# Protocol: as §1, §2
row,Compound,MIC
1,"O=C1C2SCCN2C(=O)N1c1cc(Cl)cc(Cl)c1 (centres unmarked) [Compound No. 1, 6-(3,5-dichlorophenyl)perhydroimidazo[5,1-b]thiazole-5,7-dion]",1.6 µg/mL
2,"CC12SCCN1C(=O)N(c1cc(Cl)cc(Cl)c1)C2=O (centres unmarked) [Compound No. 3, 7a-methyl-6-(3,5-dichlorophenyl)perhydroimidazo[5,1-b]thiazole-5,7-dion]",1.6 µg/mL

# Tested on: Altrenaria mali
# Experiment: Antifungal Test (PDA medium), Altrenaria mali
# Format: cell-based
# Conditions: 96 h, 25° C., 4 days, read-out: MIC Concentration
# Protocol: as §1, §2
row,Compound,MIC
1,"O=C1C2SCCN2C(=O)N1c1cc(Cl)cc(Cl)c1 (centres unmarked) [Compound No. 1, 6-(3,5-dichlorophenyl)perhydroimidazo[5,1-b]thiazole-5,7-dion]",3.1 µg/mL
2,"CC12SCCN1C(=O)N(c1cc(Cl)cc(Cl)c1)C2=O (centres unmarked) [Compound No. 3, 7a-methyl-6-(3,5-dichlorophenyl)perhydroimidazo[5,1-b]thiazole-5,7-dion]",3.1 µg/mL

# Tested on: Altrenaria Kikuchiana
# Experiment: Antifungal Test (PDA medium), Altrenaria Kikuchiana
# Format: cell-based
# Conditions: 96 h, 25° C., 4 days, read-out: MIC Concentration
# Protocol: as §1, §2
row,Compound,MIC
1,"O=C1C2SCCN2C(=O)N1c1cc(Cl)cc(Cl)c1 (centres unmarked) [Compound No. 1, 6-(3,5-dichlorophenyl)perhydroimidazo[5,1-b]thiazole-5,7-dion]",3.1 µg/mL
2,"CC12SCCN1C(=O)N(c1cc(Cl)cc(Cl)c1)C2=O (centres unmarked) [Compound No. 3, 7a-methyl-6-(3,5-dichlorophenyl)perhydroimidazo[5,1-b]thiazole-5,7-dion]",3.1 µg/mL

# Tested on: Botrytis allii
# Experiment: Antifungal Test (PDA medium), Botrytis allii
# Format: cell-based
# Conditions: 96 h, 25° C., 4 days, read-out: MIC Concentration
# Protocol: as §1, §2
row,Compound,MIC
1,"O=C1C2SCCN2C(=O)N1c1cc(Cl)cc(Cl)c1 (centres unmarked) [Compound No. 1, 6-(3,5-dichlorophenyl)perhydroimidazo[5,1-b]thiazole-5,7-dion]",6.2 µg/mL
2,"CC12SCCN1C(=O)N(c1cc(Cl)cc(Cl)c1)C2=O (centres unmarked) [Compound No. 3, 7a-methyl-6-(3,5-dichlorophenyl)perhydroimidazo[5,1-b]thiazole-5,7-dion]",3.1 µg/mL

# From US4229461A, “Fungicidal 6-(3,5-dichlorophenyl)perhydroimidazo[5,1-b]thiazole derivatives” (Mitsubishi Chemical Industries Limited, priority 1978, dated 1980)
